Test results taken from ChEMBL document CHEMBL3272252, “A novel prostaglandin endoperoxide mimic, prostaglandin F2alpha acetal” (J Med Chem, 1977).
Converted amounts (≈) assume the structure as drawn. The source made the active and inactive calls. The rule behind the calls is not given here.

Legend:
Platelet [1] = experiment: Induction of irreversible platelet aggregation in human citrated platelet-rich plasma at 100 to 250 ng/ml; assay type: functional
[2] = Vasocontractile activity in gerbil colon assessed as smooth muscle contractile response relative to PGF2alpha; assay type: functional, Gerbillinae, Muscle tissue
[3] = Vasocontractile activity in rabbit aorta assessed as smooth muscle contractile response relative to PGE2; assay type: functional, Oryctolagus cuniculus, Muscle tissue
[4] = Retardation factor of the compound using CHCl3-EtOAc-HOAc at ratio of 50:50:1 as solvent system by thin layer chromatography; assay type: physicochemical
[5] = (§1) Vasocontractile activity in dog lateral saphenous vein assessed as smooth muscle contractile response; assay type: functional; settings: Canis lupus familiaris, read-out: ED50 (the source's name)
[6] = Stability of the compound in Krebs solution at pH 8.2 at 4 degC after 1 week; assay type: physicochemical; settings: buffer, pH 8.2, 168 h
[7] = Vasocontractile activity in dog lateral saphenous vein assessed as smooth muscle contractile response relative to PGF2alpha; assay type: functional, Canis lupus familiaris
Platelet [8] = experiment: Induction of reversible platelet aggregation in human citrated platelet-rich plasma at 0.7 to 4 ug/ml; assay type: functional
Platelet [9] = experiment: Induction of irreversible platelet aggregation in human citrated platelet-rich plasma at 5 to 10 ug/ml; assay type: functional
Platelet [10] = experiment: Induction of platelet aggregation in human citrated platelet-rich plasma in presence of 10 ug/ml PG synthase inhibitor indomethacin; assay type: functional
Canis lupus familiaris = organism: Canis lupus familiaris; experiment: as §1; assay type: functional
Oryctolagus cuniculus = organism: Oryctolagus cuniculus; experiment: Vasocontractile activity in rabbit aorta assessed as smooth muscle contractile response; assay type: functional, tissue-based; settings: Muscle tissue
[11] = Vasocontractile activity in dog lateral saphenous vein assessed as smooth muscle contractile response in presence of PG synthase inhibitor indomethacin; assay type: functional, tissue-based; settings: Canis lupus familiaris
Platelet [12] = experiment: Induction of platelet aggregation in human citrated platelet-rich plasma assessed as internal contractile response with granules being squeezed into cell centre surrounded closely by microtubules and contractile microfilaments by transmission electron microscopy; assay type: functional
Gerbillinae = experiment: Vasocontractile activity in gerbil colon assessed as smooth muscle contractile response; assay type: functional, tissue-based; settings: Muscle tissue

Compound: CCCCC[C@@H](/C=C/[C@@H]1[C@@H](C/C=C\CCCC(=O)O)[C@H]2C[C@H]1OO2)OO
- Activity (Platelet [1]): Active
- Activity [2]: 1.5%
- Activity [3]: 80%

Compound: CCCCC[C@H](O)/C=C/[C@@H]1[C@@H](C/C=C\CCCC(=O)O)[C@@H]2C[C@H]1OC(C)O2 (mixture of isomers)
- Rf [4]: 0.49

Compound: CCCCC[C@H](O)/C=C/[C@@H]1[C@@H](C/C=C\CCCC(=O)O)[C@@H]2C[C@H]1OC(C)O2 (stereo in doubt; 1a) [listing 1 of 2 here]
- Activity [2]: 0.12%
- EC50 [5]: 5.8 ng/mL (≈ 0.0152 µM)
- Rf [4]: 0.53
- Stability [6]: Stable
- Activity [7]: 32%
- Activity [3]: 19%

Compound: CCCCC[C@H](O)/C=C/[C@@H]1[C@@H](C/C=C\CCCC(=O)O)[C@@H]2C[C@H]1OC(C)O2 (stereo in doubt; 1a) [listing 2 of 2 here]
- Activity (Platelet [8]): Active
- Activity (Platelet [9]): Active
- Activity (Platelet [10]): Active
- Activity (Canis lupus familiaris): Dose-dependent effect
- Activity (Oryctolagus cuniculus): Dose-dependent effect
- Activity [11]: Active
- Activity (Platelet [12]): Active
- Activity (Gerbillinae): Dose-dependent effect
